Several values for one entry are separate records, joined by “and”; a condition that tells them apart may be missing. Equal entries are not always repeated.
test system: SARS-CoV-2; test: Cytopathic effect (CPE) suppression effect confirmation test using HEK293T/ACE2-TMPRSS2 cells; type: cell-based; details: Severe acute respiratory syndrome coronavirus 2, HEK-293T, 72 h, read-out: EC50 (50% SARS-CoV-2 infected cell death inhibitory concentration), HEK293T/ACE2-TMPRSS2 cells, CPE suppression, CellTiter-Glo 2.0 after 3 days culture

| SMILES | EC50 [nM] |
| --- | --- |
| N#CCn1c(N2CC3(C2)CC(F)(F)C3)c(-c2ccc(F)c(Cl)c2)c(=O)n(-c2cncc(Cl)c2)c1=O [Compound I-077] | 1.66 |

same assay, conditions: Severe acute respiratory syndrome coronavirus 2, HEK-293T, 72 h; HEK293T/ACE2-TMPRSS2 cells, CPE suppression, CellTiter-Glo 2.0 after 3 days culture; read-out: EC50 (50% SARS-CoV-2 infected cell death inhibitory concentration), class

| SMILES | EC50 [nM] |
| --- | --- |
| Cc1cncc(-n2c(=O)c(-c3ccc(F)c(Cl)c3)c(N3CCC(C(F)F)CC3)n(CC#N)c2=O)n1 [Compound I-194] | < 100 |
| Cc1cncc(-n2c(=O)c(-c3ccc(F)c(Cl)c3)c(N3CC4(CCOCC4)C3)n(CC#N)c2=O)n1 [Compound I-193] | < 100 |

same assay, conditions: Severe acute respiratory syndrome coronavirus 2, HEK-293T; 50% SARS-CoV-2 infected cell death inhibitory concentration; HEK293T/ACE2-TMPRSS2 cells; read-out: EC50

| SMILES | EC50 [nM] |
| --- | --- |
| Cc1cncc(-n2c(=O)c(-c3ccc(F)c(Cl)c3)c(-c3ccc(C4CC4)nc3)n(CC#N)c2=O)c1 [Compound I-269] | < 100 |
| N#CCn1c(N2CCc3ccccc3C2)c(-c2ccc(F)c(Cl)c2)c(=O)n(-c2cncc(Cl)c2)c1=O [Compound I-253] | < 100 |

biological target: Recombinant SARS-CoV-2 3CL Protease (Severe acute respiratory syndrome coronavirus 2 (2019-nCoV) (SARS-CoV-2), UniProt P0DTD1); test: biochemical; type: biochemical; details: 50% SARS-CoV-2 3CL protease inhibitory concentration; read-out: IC50

| SMILES | IC50 |
| --- | --- |
| N#CCn1c(Cl)c(-c2ccc(F)c(Cl)c2)c(=O)n(-c2cnc3ccc(F)cn23)c1=O [Compound I-125] | > 100 nM |
| CC1(c2ccc(F)c(Cl)c2)CN(CC#N)C(=O)N(c2cncc(Cl)c2)C1=O (racemic) [Compound I-283] | < 10 nM and > 100 nM |
| N#CCn1c(N2CC3(CCOC3)C2)c(-c2ccc(F)c(Cl)c2)c(=O)n(-c2cc(C(F)(F)F)[nH]c(=O)c2)c1=O [Compound I-186] | 10 to 100 nM |
| N#CCn1c(N2CCN(c3ccccc3)C(=O)C2)c(-c2ccc(F)c(Cl)c2)c(=O)n(-c2cncc(Cl)c2)c1=O [Compound I-081] | > 100 nM |
| N#CCn1c(N2CC3(CCOC3)C2)c(Cc2cc(F)c(F)c(F)c2)c(=O)n(CCC(N)=O)c1=O [Compound I-001] | > 100 nM |
| N#CCn1c(N2Cc3ccccc3C2)c(-c2cccc(Cl)c2)c(=O)n(C2CCn3cnnc32)c1=O (racemic) [Compound I-121] | > 100 nM |
| Cn1cnc(Cn2c(=O)c(Cc3cc(F)c(F)c(F)c3)c(N3Cc4cn[nH]c4C3)n(CC#N)c2=O)n1 [Compound I-002] | > 100 nM |
| Cc1cc(-n2c(=O)c(-c3ccc(F)c(Cl)c3)c(Cl)n(CC#N)c2=O)c[n+]([O-])c1 [Compound I-277] | > 100 nM |
| Cc1cc(-n2c(=O)c(Cc3cc(F)c(F)c(F)c3)c(N3CC4(CCOC4)C3)n(CC#N)c2=O)cc(=O)[nH]1 [Compound I-123] | > 100 nM |
| N#CCn1c(N2Cc3ccccc3C2)c(Cc2cc(F)c(F)c(F)c2)c(=O)n(-c2cncc(=O)[nH]2)c1=O [Compound I-158] | 10 to 100 nM |
| Cn1cnc(Cn2c(=O)c(Cc3cc(F)c(F)c(F)c3)c(N3CC4(CCOC4)C3)n(CC#N)c2=O)n1 [Compound I-089] | > 100 nM |
| N#CCn1c(N2CC3(CCOC3)C2)c(-c2ccc(F)c(Cl)c2)c(=O)n(-c2cc(Cl)[nH]c(=O)c2)c1=O [Compound I-187] | 10 to 100 nM |
| N#CCn1c(N2CC3(C2)CC(F)(F)C3)c(-c2ccc(F)c(Cl)c2)c(=O)n(-c2cc(=O)cc(Br)[nH]2)c1=O [Compound I-222] | > 100 nM |
| Cc1cncc(-n2c(=O)c(Cc3cc(F)c(F)c(F)c3)c(Cl)n(CC#N)c2=O)c1 [Compound I-013] | 10 to 100 nM |
| N#CCn1c(N2CC(n3cccn3)C2)c(-c2ccc(F)c(Cl)c2)c(=O)n(-c2cncc(Cl)c2)c1=O [Compound I-080] | < 10 nM |
| N#CCn1c(N2CCCCC2)c(-c2ccc(F)c(Cl)c2)c(=O)n(-c2cncc(Cl)c2)c1=O [Compound I-254] | < 10 nM |
| Cc1cncc(-n2c(=O)c(Cc3cc(F)c(F)c(F)c3)c(Cl)n(C(C)C#N)c2=O)c1 (racemic) [Compound I-046] | > 100 nM |
| Cc1cncc(-n2c(=O)c(Cc3cc(F)c(F)c(F)c3)c(OC(C(F)(F)F)C(F)(F)F)n(CC#N)c2=O)c1 [Compound I-004] | > 100 nM |
| CC1(C)CN(c2c(-c3ccc(F)c(Cl)c3)c(=O)n(-c3cnc4cc(F)ccn34)c(=O)n2CC#N)C1 [Compound I-154] | < 10 nM |
| Cc1cncc(-n2c(=O)c(-c3ccc(F)c(Cl)c3)c(-c3ccc(C(=O)O)cc3)n(CC#N)c2=O)c1 [Compound I-024] | > 100 nM |
| N#CCn1c(N2CC3(CCOC3)C2)c(C2CCCCC2)c(=O)n(-c2cncc(Cl)c2)c1=O [Compound I-285] | > 100 nM |
| N#CCn1c(N2CCCC2)c(-c2ccc(F)c(Cl)c2)c(=O)n(-c2cncc(Cl)c2)c1=O [Compound I-252] | < 10 nM |
